According to ChEMBL document CHEMBL1138820, “Synthesis and QSAR studies of pyrimido[4,5-d]pyrimidine-2,5-dione derivatives as potential antimicrobial agents” (2004):
≈ marks a conversion by molar mass, not a printed value.

Assays:
Type in all cases: functional
Aspergillus niger = experiment: Minimum inhibitory concentration required for antifungal activity against Aspergillus niger ATCC 16404
Bacillus subtilis = experiment: Minimum inhibitory concentration required for antibacterial activity against Bacillus subtilis ATCC 6633; gram positive
Escherichia coli = experiment: Minimum inhibitory concentration required for antibacterial activity against Escherichia coli ATCC 13607; gram negative
[1] = Minimum inhibitory concentration required for antibacterial activity against Pseudomonas diminuta MTCC 3361; gram negative; conditions: Brevundimonas diminuta
Staphylococcus aureus = experiment: Minimum inhibitory concentration required for antibacterial activity against Staphylococcus aureus ATCC 2943; gram positive
Candida albicans = experiment: Minimum inhibitory concentration required for antifungal activity against Candida albicans ATCC 10321

| SMILES | MIC (Aspergillus niger) [µg/mL] | MIC (Bacillus subtilis) [µg/mL] | MIC (Escherichia coli) [µg/mL] | MIC [1] [µg/mL] | MIC (Staphylococcus aureus) [µg/mL] | MIC (Candida albicans) [µg/mL] |
| --- | --- | --- | --- | --- | --- | --- |
| O=C1Nc2[nH]c(=S)n(-c3ccccc3)c(=O)c2C(c2ccccc2Cl)N1/N=N/c1ccc(Cl)cc1 (configuration not stated) | 57 (≈ 109 µM) | 37 (≈ 70.7 µM) | 40 (≈ 76.4 µM) | 46 (≈ 87.9 µM) | 32 (≈ 61.1 µM) | 52 (≈ 99.3 µM) |
| Cc1ccc(-n2c(=S)[nH]c3c(c2=O)C(c2ccccc2Cl)N(/N=N/c2ccc(Cl)cc2)C(=O)N3)cc1 (configuration not stated) | 42 (≈ 78.1 µM) | 22 (≈ 40.9 µM) | 26 (≈ 48.4 µM) | 31 (≈ 57.7 µM) | 21 (≈ 39.1 µM) | 39 (≈ 72.6 µM) |
| COc1ccc(-n2c(=S)[nH]c3c(c2=O)C(c2ccccc2Cl)N(/N=N/c2ccc(Cl)cc2)C(=O)N3)cc1 (configuration not stated) | 33 (≈ 59.6 µM) | 16 (≈ 28.9 µM) | 17 (≈ 30.7 µM) | 21 (≈ 37.9 µM) | 11 (≈ 19.9 µM) | 29 (≈ 52.4 µM) |
| Cc1cccc(-n2c(=S)[nH]c3c(c2=O)C(c2ccccc2Cl)N(/N=N/c2ccc(Cl)cc2)C(=O)N3)c1 (configuration not stated) | 39 (≈ 72.6 µM) | 21 (≈ 39.1 µM) | 22 (≈ 40.9 µM) | 25 (≈ 46.5 µM) | 18 (≈ 33.5 µM) | 35 (≈ 65.1 µM) |
| O=C1Nc2[nH]c(=S)n(-c3ccc(Cl)cc3)c(=O)c2C(c2ccccc2Cl)N1/N=N/c1ccc(Cl)cc1 (configuration not stated) | 29 (≈ 52 µM) | 12 (≈ 21.5 µM) | 13 (≈ 23.3 µM) | 14 (≈ 25.1 µM) | 9 (≈ 16.1 µM) | 24 (≈ 43 µM) |
| CC1(C)S[C@@H]2[C@H](NC(=O)[C@H](N)c3ccccc3)C(=O)N2[C@H]1C(=O)O [AMPICILLIN] |  | 10 (≈ 28.6 µM) | 49 (≈ 140 µM) | 15 (≈ 42.9 µM) | 50 (≈ 143 µM) |  |

Further compounds by falling MIC (Aspergillus niger), results first:

| MIC (Aspergillus niger) [µg/mL] | MIC (Bacillus subtilis) [µg/mL] | MIC (Escherichia coli) [µg/mL] | MIC [1] [µg/mL] | MIC (Staphylococcus aureus) [µg/mL] | MIC (Candida albicans) [µg/mL] | SMILES |
| --- | --- | --- | --- | --- | --- | --- |
| 27 (≈ 50.1 µM) | 10 (≈ 18.5 µM) | 12 (≈ 22.2 µM) | 15 (≈ 27.8 µM) | 8 (≈ 14.8 µM) | 23 (≈ 42.6 µM) | O=C1Nc2[nH]c(=S)n(-c3ccc(O)cc3)c(=O)c2C(c2ccccc2Cl)N1/N=N/c1ccc(Cl)cc1 (configuration not stated) |
| 24 (≈ 44.5 µM) | 8 (≈ 14.8 µM) | 10 (≈ 18.5 µM) | 13 (≈ 24.1 µM) | 6 (≈ 11.1 µM) | 20 (≈ 37.1 µM) | O=C1Nc2[nH]c(=S)n(-c3cccc(O)c3)c(=O)c2C(c2ccccc2Cl)N1/N=N/c1ccc(Cl)cc1 (configuration not stated) |
| 22 (≈ 38.8 µM) | 7 (≈ 12.3 µM) | 8 (≈ 14.1 µM) | 11 (≈ 19.4 µM) | 5 (≈ 8.81 µM) | 17 (≈ 30 µM) | O=C(O)c1ccc(-n2c(=S)[nH]c3c(c2=O)C(c2ccccc2Cl)N(/N=N/c2ccc(Cl)cc2)C(=O)N3)cc1 (configuration not stated) |
| 20 (≈ 58 µM) |  |  |  |  | 25 (≈ 72.5 µM) | Clc1ccccc1C(c1ccccc1)(c1ccccc1)n1ccnc1 [CLOTRIMAZOLE] |
| 19 (≈ 33.4 µM) | 6 (≈ 10.6 µM) | 7 (≈ 12.3 µM) | 9 (≈ 15.8 µM) | 4 (≈ 7.04 µM) | 15 (≈ 26.4 µM) | O=C1Nc2[nH]c(=S)n(-c3ccc([N+](=O)[O-])cc3)c(=O)c2C(c2ccccc2Cl)N1/N=N/c1ccc(Cl)cc1 (configuration not stated) |
| 16 (≈ 28.1 µM) | 5 (≈ 8.8 µM) | 6 (≈ 10.6 µM) | 8 (≈ 14.1 µM) | 3 (≈ 5.28 µM) | 13 (≈ 22.9 µM) | O=C1Nc2[nH]c(=S)n(-c3cccc([N+](=O)[O-])c3)c(=O)c2C(c2ccccc2Cl)N1/N=N/c1ccc(Cl)cc1 (configuration not stated) |
| 14 (≈ 25.1 µM) | 4 (≈ 7.17 µM) | 4 (≈ 7.17 µM) | 5 (≈ 8.96 µM) | 2 (≈ 3.59 µM) | 11 (≈ 19.7 µM) | O=C1Nc2[nH]c(=S)n(-c3cccc(Cl)c3)c(=O)c2C(c2ccccc2Cl)N1/N=N/c1ccc(Cl)cc1 (configuration not stated) |
